# Biological target: human Melanocortin-4 receptor (MC4R) (Homo sapiens (Human), UniProt P32245)
# Experiment: Functional in vitro MC4R antagonist potency assay (cAMP HTRF in CHO cells)
# Type: cell-based
# Details: not given
# Procedure: Example BB. Functional In Vitro MC4R Antagonist Potency Assay
# The functional in vitro antagonist potency for test compounds was determined by monitoring intracellular cyclic adenosine monophosphate (cAMP) levels in Chinese hamster ovary (CHO—) cells stably expressing the human Melanocortin-4 receptor (MC4R). Following agonist activation, human MC4R associates with the G-protein complex causing the Gα subunit to exchange bound GDP for GTP, followed by dissociation of the Ga-GTP complex. The activated Gα subunit can couple to downstream effectors to regulate the levels of second messengers or cAMP within the cell. Thereby, determination of intracellular cAMP levels allows for pharmacological characterization. Intracellular cAMP levels are quantitated using a homogenous assay utilizing the Homogeneous Time-Resolved Fluorescence (HTRF) technology from CisBio. The method is a competitive immunoassay between native cAMP produced by cells and the cAMP labelled with the acceptor dye, d2. The two entities then compete for binding to a monoclonal anti-cAMP antibody labeled with cryptate. The specific signal is inversely proportional to the concentration of cAMP in the cells.
# Test compounds were solubilized to 30 mM in 100% dimethyl sulfoxide (DMSO) and stored. […] The final compound concentration range in the assay was 400 nM to […], with a final DMSO concentration of 0.1%.
# (95% O2: 5% CO2) overnight, with micro-clime lids (Labcyte, Cat No. LLS-0310). […] Cells were incubated with compound for 30 minutes at 37° C. (95% O2: 5% CO2) before addition of 5 μL EC80, agonist stimulation (200 nM α-melanocyte stimulating hormone, aMSH, Bachem) and another 30-minute incubation at 37° C. (95% O2: 5% CO2). Intracellular cAMP levels were quantified as per Cisbio's protocol (5 uL of D2 and then 5 uL Cryptate, incubated for 1-2 hours at room temperature).
# Data expressed as nM cAMP were then normalized to control wells using Activity Base (IDBS). Zero percent effect (ZPE) was defined as nM of cAMP generated from ECK, agonist stimulation (200 nM aMSH). In the absence of an antagonist control compound, one hundred percent effect (HPE) was defined as nM of cAMP generated from assay buffer/vehicle only.
# Chain of human Melanocortin-4 receptor (MC4R) (P32245 whole entry): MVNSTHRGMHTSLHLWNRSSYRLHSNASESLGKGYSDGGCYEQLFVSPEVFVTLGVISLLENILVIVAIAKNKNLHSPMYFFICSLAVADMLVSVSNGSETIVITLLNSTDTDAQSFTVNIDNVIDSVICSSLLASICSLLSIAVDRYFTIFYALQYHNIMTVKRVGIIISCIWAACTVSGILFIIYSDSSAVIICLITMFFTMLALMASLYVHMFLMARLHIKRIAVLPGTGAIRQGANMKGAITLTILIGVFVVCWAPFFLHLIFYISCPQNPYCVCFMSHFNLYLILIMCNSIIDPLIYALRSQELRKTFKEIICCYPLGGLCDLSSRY
row,Structure (SMILES),Kb [nM]
1,"COc1cc([C@@H](C)C(=O)N2CC[C@@]3(CCc4cc(-c5nnn(C)n5)c(C)nc4N3)C2)c(F)cn1 [Example 13, (2R)-2-(5-Fluoro-2-methoxypyridin-4-yl)-1-[(2S)-7-methyl-6-(2-methyl-2H-tetrazol-5-yl)-3,4-dihydro-1H-spiro[1,8-naphthyridine-2,3′-pyrrolidin]-1′-yl]propan-1-one]",0.16
2,"[2H]c1cc([2H])nc(-c2cc3c(nc2C)N[C@@]2(CC3)CCN(C(=O)[C@H](C)c3cc(OC)ncc3F)C2)n1 [Example 18, (2R)-2-(5-Fluoro-2-methoxypyridin-4-yl)-1-{(2S)-7-methyl-6-[(4,6-^2H2)pyrimidin-2-yl]-3,4-dihydro-1H-spiro[1,8-naphthyridine-2,3′-pyrrolidin]-1′-yl}propan-1-one]",0.55

# Same assay, conditions: human MC4R in CHO cells, cAMP HTRF, 200 nM aMSH challenge; Kb from IC50 by Leff-Dougall equation; geometric mean; read-out: Kb (nM) Antagonist geometric
row,Structure (SMILES),Kb [nM]
1,"COc1cc([C@@H](C)C(=O)N2CC[C@@]3(CCc4cc(Cl)c(C)nc4N3)C2)c(F)cn1 (single isomer, unassigned) [Example 102]",> 92
2,"Cc1nc2c(cc1-c1nnn(C)n1)CC[C@@]1(CCN(C(=O)[C@H](C)c3ccc(C(F)(F)F)cc3)C1)N2 (single isomer, unassigned) [Example 109]",5.8
3,"COc1cc([C@@H](C)C(=O)N2CCC3(CCc4cc(-c5nc(OC)n(C)n5)c(C)nc4N3)C2)c(F)cn1 (single isomer, unassigned) [Example 112]",2
4,"COc1cc(C(C)C(=O)N2CC[C@@]3(CCc4cc(-c5nc(C(F)F)n(C)n5)c(C)nc4N3)C2)nc(C)n1 (single isomer, unassigned) [Example 123]",0.5
5,"COc1cc(C(C)C(=O)N2CC[C@@]3(CCc4cc(-c5nnn(C)n5)c(C)nc4N3)C2)ccn1 (single isomer, unassigned) [Example 125]",5.1
6,"COc1cc([C@](C)(F)C(=O)N2CC[C@@]3(CCc4cc(-c5ncccn5)c(C)nc4N3)C2)c(F)cn1 (single isomer, unassigned) [Example 148]",19
7,"Cc1nc2c(cc1-c1ncccn1)CC[C@@]1(CCN(C(=O)[C@H](C)c3ccc(F)cc3F)C1)N2 (single isomer, unassigned) [Example 190]",5.9

# Results, then the compound that gave them:
row,Kb [nM],Structure (SMILES)
1,0.06,"COc1cc([C@@H](C)C(=O)N2CC[C@@]3(CCc4cc(-c5cnn(C)c5)c(C)nc4N3)C2)c(Cl)cn1 (single isomer, unassigned) [Example 104]"
2,1.1,"COc1cc(C(C)C(=O)N2CC[C@@]3(CCc4cc(-c5nnn(C)n5)c(C)nc4N3)C2)nc(C(F)F)n1 (single isomer, unassigned) [Example 127]"
3,> 97,"COc1ncc(F)c(C(C)C(=O)N2CC[C@@]3(CCc4cc(-c5nnn(C)n5)c(C)nc4N3)C2)n1 (single isomer, unassigned) [Example 134]"
4,0.16,"COc1cc(C(C)C(=O)N2CC[C@@]3(CCc4cc(-c5ncccn5)c(C)nc4N3)C2)c(C)cn1 (single isomer, unassigned) [Example 136]"

# Same assay, conditions: read-out: Kb (nM) Antagonist geometric mean
row,Structure (SMILES),Kb [nM]
1,"COc1cc([C@](C)(F)C(=O)N2CC[C@@]3(CCc4cc(-c5ncccn5)c(C)nc4N3)C2)ccn1 (single isomer, unassigned) [Example 46]",7.2
2,"Cc1nc2c(cc1-c1ncccn1)CC[C@@]1(CCN(C(=O)[C@H](C)c3ccc(F)c(F)c3)C1)N2 (single isomer, unassigned) [Example 50]",2.9
3,"COc1cc([C@@H](C)C(=O)N2CC[C@@]3(CCc4cc(-c5ncccn5)c(C)nc4N3)C2)cc(OC)n1 (single isomer, unassigned) [Example 83]",0.54
4,"COc1cc(OC)cc([C@@H](C)C(=O)N2CC[C@@]3(CCc4cc(-c5cnn(C)c5)c(C)nc4N3)C2)c1 (single isomer, unassigned) [Example 90]",0.4
5,"COc1cc([C@@H](C)C(=O)N2CC[C@@]3(CCc4cc(-c5nc(C(F)(F)F)n(C)n5)c(C)nc4N3)C2)c(F)cn1 (single isomer, unassigned) [Example 92]",0.16
6,"COc1cc([C@@H](C)C(=O)N2CC[C@@]3(CCc4ccc(C)nc4N3)C2)c(F)cn1 (single isomer, unassigned) [Example 98]",19
7,"COc1cc([C@@H](C)C(=O)N2CC[C@@]3(CCc4ccc(C)nc4N3)C2)c(Cl)cn1 (single isomer, unassigned) [Example 100]",5.5
8,"Cc1nc2c(cc1-c1cnn(C)c1)CC[C@@]1(CCN(C(=O)Cc3ccc(F)cc3)C1)N2 (stereo in doubt) [Example 89, 2-(4-fluorophenyl)-1-[7-methyl-6-(1-methyl-1H-pyrazol-4-yl)-3,4-dihydro-1H-spiro[1,8-naphthyridine-2,3′-pyrrolidin]-1′-yl]ethan-1-one]",> 40
9,"COc1cc([C@@H](C)C(=O)N2CC[C@@]3(CCc4cc(-c5cn(C(F)(F)F)c(C)n5)c(C)nc4N3)C2)c(F)cn1 [Example 27, (2R)-2-(5-fluoro-2-methoxypyridin-4-yl)-1-{(2S)-7-methyl-6-[2-methyl-1-(trifluoromethyl)-1H-imidazol-4-yl]-3,4-dihydro-1H-spiro[1,8-naphthyridine-2,3′-pyrrolidin]-1′-yl}propan-1-one]",4.6
10,"COc1cc([C@H](C)C(=O)N2CC[C@@]3(CCc4cc(-c5ncccn5)c(C)nc4N3)C2)c(F)cn1 [Example 28, (2S)-2-(5-fluoro-2-methoxypyridin-4-yl)-1-[(2S)-7-methyl-6-(pyrimidin-2-yl)-3,4-dihydro-1H-spiro[1,8-naphthyridine-2,3′-pyrrolidin]-1′-yl]propan-1-one]",> 97
11,"COc1cc([C@H](C)C(=O)N2CC[C@]3(CCc4cc(-c5ncccn5)c(C)nc4N3)C2)c(F)cn1 [Example 30, (2S)-2-(5-fluoro-2-methoxypyridin-4-yl)-1-[(2R)-7-methyl-6-(pyrimidin-2-yl)-3,4-dihydro-1H-spiro[1,8-naphthyridine-2,3′-pyrrolidin]-1′-yl]propan-1-one]",> 54
12,"Cc1nc2c(cc1-c1ncccn1)CC[C@@]1(CCN(C(=O)Cc3cc(F)c(F)c(F)c3)C1)N2 [Example 54, 1-[(2S)-7-methyl-6-(pyrimidin-2-yl)-3,4-dihydro-1H-spiro[1,8-naphthyridine-2,3′-pyrrolidin]-1′-yl]-2-(3,4,5-trifluorophenyl)ethan-1-one]",4.1

# The next lines start with the values.
row,Kb [nM],Structure (SMILES)
1,3.2,"COc1cc([C@@H](C)C(=O)N2CCC3(CCc4cc(-c5coc(C)n5)c(C)nc4N3)C2)c(F)cn1 (mixture of isomers) [Example 33, (2R)-2-(5-fluoro-2-methoxypyridin-4-yl)-1-[7-methyl-6-(2-methyl-1,3-oxazol-4-yl)-3,4-dihydro-1H-spiro[1,8-naphthyridine-2,3′-pyrrolidin]-1′-yl]propan-1-one]"
2,24,"COc1cc([C@@H](C)C(=O)N2CC[C@@]3(CCc4ccc(C)nc4N3)C2)nc(C)n1 (single isomer, unassigned) [Example 23, 2-(6-methoxy-2-methylpyrimidin-4-yl)-1-(7-methyl-3,4-dihydro-1H-spiro[1,8-naphthyridine-2,3′-pyrrolidin]-1′-yl)propan-1-one]"
3,9.4,"COc1ccc([C@@H](C)C(=O)N2CC[C@@]3(CCc4cc(-c5ncccn5)c(C)nc4N3)C2)cc1F (single isomer, unassigned) [Example 42]"
4,10,"Cc1nc2c(cc1-c1nnn(C)n1)CC[C@@]1(CCN(C(=O)Cc3ccc(C(F)(F)F)cc3)C1)N2 (single isomer, unassigned) [Example 65, 1-[7-methyl-6-(2-methyl-2H-tetrazol-5-yl)-3,4-dihydro-1H-spiro[1,8-naphthyridine-2,3′-pyrrolidin]-1′-yl]-2-[4-(trifluoromethyl)phenyl]ethan-1-one]"
5,0.12,"COc1cc([C@@H](C)C(=O)N2CC[C@@]3(CCc4cc(-c5nc(C(F)(F)F)n(C)n5)c(C)nc4N3)C2)c(Cl)cn1 (single isomer, unassigned) [Example 94]"
6,20,"COc1cc([C@@H](C)C(=O)N2CC[C@@]3(CCc4cc(-c5ncc(C(F)F)cn5)c(C)nc4N3)C2)c(F)cn1 [Example 21, (2R)-1-{(2S)-6-[5-(difluoromethyl)pyrimidin-2-yl]-7-methyl-3,4-dihydro-1H-spiro[1,8-naphthyridine-2,3′-pyrrolidin]-1′-yl}-2-(5-fluoro-2-methoxypyridin-4-yl)propan-1-one]"
7,12,"COc1cc([C@@H](C)C(=O)N2CC[C@]3(CCc4cc(-c5ncccn5)c(C)nc4N3)C2)c(F)cn1 [Example 29, (2R)-2-(5-fluoro-2-methoxypyridin-4-yl)-1-[(2R)-7-methyl-6-(pyrimidin-2-yl)-3,4-dihydro-1H-spiro[1,8-naphthyridine-2,3′-pyrrolidin]-1′-yl]propan-1-one]"

# Source: patent US12187727B2, “Methods for antagonizing a melanocortin 4 receptor” (Pfizer Inc., priority 2020, dated 2025)
